Key:
in vitro = conditions: human
Aorta = experiment: Vasorelaxant activity in rat aortic ring assessed as inhibition of phenylephrine-induced contraction; assay type: functional, tissue-based
[1] = biological target: Rho-associated protein kinase 2 (Homo sapiens, UniProt O75116); experiment: Inhibition of ROCK2 by luciferase based ATP detection assay
[2] = biological target: T1, cGMP-dependent protein kinase 2 (Homo sapiens, UniProt Q13237); experiment: Inhibition of PRKG2
T1 sequence (Q13237 whole entry): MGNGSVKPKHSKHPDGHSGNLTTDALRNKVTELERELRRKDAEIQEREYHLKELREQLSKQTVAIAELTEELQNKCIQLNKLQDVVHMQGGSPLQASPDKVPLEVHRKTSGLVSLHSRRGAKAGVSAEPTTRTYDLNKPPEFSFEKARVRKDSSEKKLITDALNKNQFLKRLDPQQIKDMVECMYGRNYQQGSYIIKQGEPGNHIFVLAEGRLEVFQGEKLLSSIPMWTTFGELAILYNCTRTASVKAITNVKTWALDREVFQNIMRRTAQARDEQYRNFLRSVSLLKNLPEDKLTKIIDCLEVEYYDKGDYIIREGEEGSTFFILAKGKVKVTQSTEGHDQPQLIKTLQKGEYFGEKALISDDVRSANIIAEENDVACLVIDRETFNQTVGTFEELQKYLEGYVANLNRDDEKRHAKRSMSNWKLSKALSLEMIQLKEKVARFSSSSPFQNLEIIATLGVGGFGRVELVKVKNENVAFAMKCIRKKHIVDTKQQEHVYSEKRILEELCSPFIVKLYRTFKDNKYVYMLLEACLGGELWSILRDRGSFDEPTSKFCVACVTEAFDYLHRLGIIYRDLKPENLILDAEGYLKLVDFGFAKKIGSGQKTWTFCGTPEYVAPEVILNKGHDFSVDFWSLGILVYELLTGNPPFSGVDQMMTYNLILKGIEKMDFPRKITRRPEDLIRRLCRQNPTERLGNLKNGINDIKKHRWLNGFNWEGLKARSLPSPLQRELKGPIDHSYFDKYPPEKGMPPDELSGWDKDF

[3] = biological target: T2, Protein kinase C epsilon type (Homo sapiens, UniProt Q02156); experiment: Inhibition of PRKCE
T2 sequence (Q02156 whole entry): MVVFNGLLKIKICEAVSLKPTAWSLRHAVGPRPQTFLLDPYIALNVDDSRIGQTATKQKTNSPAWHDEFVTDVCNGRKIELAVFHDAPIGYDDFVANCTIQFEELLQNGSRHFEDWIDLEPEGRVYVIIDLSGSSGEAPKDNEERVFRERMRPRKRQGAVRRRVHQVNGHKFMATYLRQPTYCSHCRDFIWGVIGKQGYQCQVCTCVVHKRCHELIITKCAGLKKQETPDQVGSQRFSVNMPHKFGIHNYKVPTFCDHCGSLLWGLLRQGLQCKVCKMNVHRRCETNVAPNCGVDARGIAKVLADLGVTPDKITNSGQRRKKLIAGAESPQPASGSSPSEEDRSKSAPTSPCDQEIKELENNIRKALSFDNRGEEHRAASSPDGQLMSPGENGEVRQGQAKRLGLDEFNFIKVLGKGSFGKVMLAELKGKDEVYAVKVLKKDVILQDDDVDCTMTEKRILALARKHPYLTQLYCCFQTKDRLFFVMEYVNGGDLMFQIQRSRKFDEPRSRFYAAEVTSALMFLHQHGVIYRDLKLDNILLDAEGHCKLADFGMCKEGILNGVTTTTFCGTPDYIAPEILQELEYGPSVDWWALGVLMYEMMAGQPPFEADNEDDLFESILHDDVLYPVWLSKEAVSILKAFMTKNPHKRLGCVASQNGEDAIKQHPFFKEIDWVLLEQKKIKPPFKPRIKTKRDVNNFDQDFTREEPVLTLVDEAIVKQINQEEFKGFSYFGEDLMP

[4] = biological target: Serine/threonine-protein kinase N2 (Homo sapiens, UniProt Q16513); experiment: Inhibition of PRKCL2
Sequence of Serine/threonine-protein kinase N2 (Q16513 whole entry): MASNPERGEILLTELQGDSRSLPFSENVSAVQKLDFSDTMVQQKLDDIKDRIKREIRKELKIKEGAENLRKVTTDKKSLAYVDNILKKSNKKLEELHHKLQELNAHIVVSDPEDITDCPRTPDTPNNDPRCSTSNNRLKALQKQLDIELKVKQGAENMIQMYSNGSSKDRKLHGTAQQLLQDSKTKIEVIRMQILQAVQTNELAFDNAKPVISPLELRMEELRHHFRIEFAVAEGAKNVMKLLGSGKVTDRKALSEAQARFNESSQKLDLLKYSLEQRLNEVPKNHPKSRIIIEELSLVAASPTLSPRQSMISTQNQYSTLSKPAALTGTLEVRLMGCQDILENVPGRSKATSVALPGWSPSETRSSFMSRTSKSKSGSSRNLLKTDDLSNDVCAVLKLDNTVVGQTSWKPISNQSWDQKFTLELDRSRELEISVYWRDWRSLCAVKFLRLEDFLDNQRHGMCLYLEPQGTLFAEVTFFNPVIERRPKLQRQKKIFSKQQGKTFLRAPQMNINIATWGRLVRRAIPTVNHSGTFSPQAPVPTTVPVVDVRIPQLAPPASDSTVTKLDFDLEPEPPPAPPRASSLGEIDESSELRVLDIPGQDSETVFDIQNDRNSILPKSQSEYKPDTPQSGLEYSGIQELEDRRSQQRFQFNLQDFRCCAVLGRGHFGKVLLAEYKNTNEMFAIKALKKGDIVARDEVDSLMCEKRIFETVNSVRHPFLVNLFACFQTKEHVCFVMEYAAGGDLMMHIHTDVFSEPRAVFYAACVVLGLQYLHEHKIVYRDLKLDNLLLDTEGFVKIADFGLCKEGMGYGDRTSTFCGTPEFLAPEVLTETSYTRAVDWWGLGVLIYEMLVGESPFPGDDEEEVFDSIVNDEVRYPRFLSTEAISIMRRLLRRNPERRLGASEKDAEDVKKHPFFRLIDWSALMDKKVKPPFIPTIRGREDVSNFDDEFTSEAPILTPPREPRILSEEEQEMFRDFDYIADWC

Sequence of Rho-associated protein kinase 2 (O75116 whole entry): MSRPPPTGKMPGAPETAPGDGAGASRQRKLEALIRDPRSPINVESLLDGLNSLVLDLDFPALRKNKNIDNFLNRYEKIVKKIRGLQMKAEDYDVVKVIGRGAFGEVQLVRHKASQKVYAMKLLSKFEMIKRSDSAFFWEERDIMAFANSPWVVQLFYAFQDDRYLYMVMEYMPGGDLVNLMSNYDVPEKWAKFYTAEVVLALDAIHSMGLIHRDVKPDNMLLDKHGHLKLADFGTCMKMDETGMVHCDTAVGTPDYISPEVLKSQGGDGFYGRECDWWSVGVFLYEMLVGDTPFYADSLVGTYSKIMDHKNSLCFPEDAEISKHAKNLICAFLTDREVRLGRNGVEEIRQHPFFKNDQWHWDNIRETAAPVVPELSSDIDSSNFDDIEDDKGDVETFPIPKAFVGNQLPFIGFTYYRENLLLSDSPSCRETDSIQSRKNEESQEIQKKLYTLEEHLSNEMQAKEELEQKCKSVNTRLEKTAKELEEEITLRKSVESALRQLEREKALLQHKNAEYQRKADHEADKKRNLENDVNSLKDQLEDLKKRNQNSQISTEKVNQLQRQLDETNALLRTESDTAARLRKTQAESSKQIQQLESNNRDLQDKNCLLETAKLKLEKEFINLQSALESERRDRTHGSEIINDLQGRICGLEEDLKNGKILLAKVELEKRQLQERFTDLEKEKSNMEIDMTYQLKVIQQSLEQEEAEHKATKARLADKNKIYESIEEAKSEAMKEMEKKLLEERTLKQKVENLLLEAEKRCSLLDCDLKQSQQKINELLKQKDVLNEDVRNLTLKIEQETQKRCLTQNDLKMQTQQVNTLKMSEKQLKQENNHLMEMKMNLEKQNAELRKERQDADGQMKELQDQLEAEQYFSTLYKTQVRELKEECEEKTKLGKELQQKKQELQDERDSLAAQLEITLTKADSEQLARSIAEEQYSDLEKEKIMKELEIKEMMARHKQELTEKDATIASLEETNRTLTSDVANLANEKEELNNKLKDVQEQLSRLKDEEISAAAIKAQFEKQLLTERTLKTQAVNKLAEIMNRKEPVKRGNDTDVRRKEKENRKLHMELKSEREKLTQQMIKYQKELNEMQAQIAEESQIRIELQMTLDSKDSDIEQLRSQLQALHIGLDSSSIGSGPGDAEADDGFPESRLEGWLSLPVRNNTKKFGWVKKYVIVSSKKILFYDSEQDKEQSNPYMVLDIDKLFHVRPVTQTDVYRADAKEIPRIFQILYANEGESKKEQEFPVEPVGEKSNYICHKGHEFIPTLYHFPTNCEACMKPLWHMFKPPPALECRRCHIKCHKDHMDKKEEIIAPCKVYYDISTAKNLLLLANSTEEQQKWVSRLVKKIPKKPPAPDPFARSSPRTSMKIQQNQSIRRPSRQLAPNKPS

SMILES	EC50 (Aorta)	IC50 [1]	further results
O=C(Nc1cc2cc[nH]c(=O)c2cc1Cl)C1CNCC1c1ccc(Cl)cc1 (racemic)	60 nM	6 nM	half-life (in vitro; liver microsomes): > 300 min
O=C(Nc1cc2cc[nH]c(=O)c2cc1Cl)C1CNCC1c1ccc(Cl)cc1Cl (racemic)	–	8 nM	–
O=C(Nc1cc2cc[nH]c(=O)c2cc1Cl)[C@@H]1CNC[C@H]1c1ccc(Cl)cc1	23 nM	4 nM	IC50 [2]: 24 nM; IC50 [3]: 1000 nM; IC50 [4]: 14 nM
O=C(Nc1cc2cc[nH]c(=O)c2cc1Cl)C1(c2ccccc2)CCNCC1	–	230 nM	–
O=C(Nc1cc2cc[nH]c(=O)c2cc1Cl)C1CNCC1c1ccc(Br)cc1 (racemic)	140 nM	4 nM	half-life (in vitro; microsomes): 238 min
O=C(Nc1cc2cc[nH]c(=O)c2cc1Cl)C1CNCC1c1cccc(OC(F)(F)F)c1 (racemic)	–	7 nM	–
COc1cccc(C2CNCC2C(=O)Nc2cc3cc[nH]c(=O)c3cc2Cl)c1 (racemic)	88 nM	4 nM	–
O=C(Nc1cc2cc[nH]c(=O)c2cc1Cl)C1CNCC1c1cccc(C(F)(F)F)c1 (racemic)	–	4 nM	–
CC(C)c1cccc(C2CNCC2C(=O)Nc2cc3cc[nH]c(=O)c3cc2Cl)c1 (racemic)	–	6 nM	–
O=C(Nc1cc2cc[nH]c(=O)c2cc1Cl)C1CNCC1c1ccc(F)cc1 (racemic)	160 nM	9 nM	half-life (in vitro; liver microsomes): 61 min
CC(C)(C)c1cccc(C2CNCC2C(=O)Nc2cc3cc[nH]c(=O)c3cc2Cl)c1 (racemic)	–	11 nM	–
O=C(Nc1cc2cc[nH]c(=O)c2cc1Cl)[C@H]1CNC[C@@H]1c1ccc(Cl)cc1	40 nM	–	–

Second part, led by results:

EC50 (Aorta)	IC50 [1]	SMILES	further results
170 nM	–	CNC(C(=O)Nc1cc2cc[nH]c(=O)c2cc1Cl)c1ccccc1 (centres undefined)	half-life (in vitro; microsomes): 15 min
550 nM	47 nM	O=C(Nc1cc2cc[nH]c(=O)c2cc1Cl)[C@@H]1CCCNC1	half-life (in vitro; liver microsomes): 71 min
63 nM	2 nM	O=C(Nc1cc2cc[nH]c(=O)c2cc1Cl)C1CNCC1c1cccc(Br)c1 (racemic)	half-life (in vitro; liver microsomes): 43 min
66 nM	26 nM	O=C(Nc1cc2cc[nH]c(=O)c2cc1Cl)C1CNCC1c1ccncc1 (racemic)	–
–	240 nM	O=C(Nc1cc2cc[nH]c(=O)c2cc1Cl)C1(c2ccccc2)CCNC1 (centres undefined)	–
55 nM	6 nM	O=C(Nc1cc2cc[nH]c(=O)c2cc1Cl)C1CNCCC1c1ccccc1 (racemic)	half-life (in vitro; liver microsomes): 37 min
89 nM	6 nM	O=C(Nc1cc2cc[nH]c(=O)c2cc1Cl)C1CNCC1c1ccccc1 (racemic)	half-life (in vitro; liver microsomes): 130 min
–	4 nM	CCc1cccc(C2CNCC2C(=O)Nc2cc3cc[nH]c(=O)c3cc2Cl)c1 (racemic)	–
–	5 nM	Cc1cccc(C2CNCC2C(=O)Nc2cc3cc[nH]c(=O)c3cc2Cl)c1 (racemic)	–
–	15 nM	NC(C(=O)Nc1cc2cc[nH]c(=O)c2cc1Cl)c1cccc(Cl)c1 (centres undefined)	–
150 nM	8 nM	O=C(Nc1cc2cc[nH]c(=O)c2cc1Cl)C1CNCC1c1cccnc1 (racemic)	half-life (in vitro; microsomes): 49 min
210 nM	14 nM	O=C(Nc1cc2cc[nH]c(=O)c2cc1Cl)C1CNCC1c1ccccn1 (racemic)	half-life (in vitro; liver microsomes): 58 min

Source: ChEMBL document CHEMBL1155533, “Substituted 2H-isoquinolin-1-ones as potent Rho-kinase inhibitors: part 3, aryl substituted pyrrolidines” (Bioorg Med Chem Lett, 2010)
